The source of these data is ChEMBL document CHEMBL4334512, “Rationally Designed, Conformationally Constrained Inverse Agonists of RORγt-Identification of a Potent, Selective Series with Biologic-Like in Vivo Efficacy” (J Med Chem, 2019).

For data set [1], the target named is T1, Nuclear receptor ROR-alpha (Homo sapiens, UniProt P35398).
T1 sequence (P35398 whole entry): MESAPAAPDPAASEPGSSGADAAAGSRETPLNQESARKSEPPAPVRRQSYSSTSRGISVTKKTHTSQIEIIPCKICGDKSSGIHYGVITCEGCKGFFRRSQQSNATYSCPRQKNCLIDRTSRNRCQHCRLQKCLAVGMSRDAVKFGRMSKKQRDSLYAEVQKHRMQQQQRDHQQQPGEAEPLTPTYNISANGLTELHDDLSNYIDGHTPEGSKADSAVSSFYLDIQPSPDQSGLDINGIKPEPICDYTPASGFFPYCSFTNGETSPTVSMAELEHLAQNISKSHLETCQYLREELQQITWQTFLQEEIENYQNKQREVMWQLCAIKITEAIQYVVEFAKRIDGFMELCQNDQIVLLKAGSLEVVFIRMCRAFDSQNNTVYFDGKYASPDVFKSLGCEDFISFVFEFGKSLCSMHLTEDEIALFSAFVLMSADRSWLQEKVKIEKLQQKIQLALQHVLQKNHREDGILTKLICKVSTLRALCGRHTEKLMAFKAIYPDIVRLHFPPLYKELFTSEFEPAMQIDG
As to the kind of experiment: Activity at RORalpha (unknown origin).

Data set [2] in a line: Half life in human liver microsomes. Format: ADME, Microsome. (Microsomes from liver hold many membrane-bound enzymes, among them those of drug oxidation.)
For data set [3], the target named is T2, Nuclear receptor subfamily 1 group I member 2 (Homo sapiens, UniProt O75469).
T2 sequence (O75469 whole entry): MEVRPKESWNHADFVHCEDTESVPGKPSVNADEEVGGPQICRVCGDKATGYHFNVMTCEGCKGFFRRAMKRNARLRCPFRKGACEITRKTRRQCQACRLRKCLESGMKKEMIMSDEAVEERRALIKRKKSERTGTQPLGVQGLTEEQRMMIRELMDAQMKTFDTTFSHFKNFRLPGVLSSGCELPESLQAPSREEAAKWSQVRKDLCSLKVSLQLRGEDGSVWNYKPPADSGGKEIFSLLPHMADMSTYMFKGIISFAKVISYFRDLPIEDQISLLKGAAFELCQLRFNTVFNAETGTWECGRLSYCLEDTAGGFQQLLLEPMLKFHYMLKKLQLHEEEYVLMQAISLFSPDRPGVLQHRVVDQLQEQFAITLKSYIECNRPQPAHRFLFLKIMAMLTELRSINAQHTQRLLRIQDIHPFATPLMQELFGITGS
As to the kind of experiment: Activity at PXR (unknown origin).

The target of data set [4] is T3, Oxysterols receptor LXR-alpha (Homo sapiens, UniProt Q13133).
T3 sequence (Q13133 whole entry): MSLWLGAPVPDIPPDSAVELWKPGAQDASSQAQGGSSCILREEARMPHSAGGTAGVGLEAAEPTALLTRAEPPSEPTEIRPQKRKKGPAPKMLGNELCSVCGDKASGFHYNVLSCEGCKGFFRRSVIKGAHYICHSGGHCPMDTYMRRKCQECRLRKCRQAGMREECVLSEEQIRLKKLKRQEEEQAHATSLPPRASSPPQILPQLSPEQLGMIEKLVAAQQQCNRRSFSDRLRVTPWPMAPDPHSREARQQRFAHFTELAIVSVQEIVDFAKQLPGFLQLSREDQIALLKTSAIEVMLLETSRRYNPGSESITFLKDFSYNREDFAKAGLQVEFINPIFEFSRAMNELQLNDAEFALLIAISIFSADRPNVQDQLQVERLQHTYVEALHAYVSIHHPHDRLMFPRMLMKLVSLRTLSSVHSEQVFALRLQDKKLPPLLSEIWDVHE
As to the kind of experiment: Activity at LXRalpha (unknown origin).

The nature of data set [5]: Half life in rat liver microsomes. Format: ADME, Microsome.
Data set [6] addresses T4, Oxysterols receptor LXR-beta (Homo sapiens, UniProt P55055).
T4 sequence (P55055 whole entry): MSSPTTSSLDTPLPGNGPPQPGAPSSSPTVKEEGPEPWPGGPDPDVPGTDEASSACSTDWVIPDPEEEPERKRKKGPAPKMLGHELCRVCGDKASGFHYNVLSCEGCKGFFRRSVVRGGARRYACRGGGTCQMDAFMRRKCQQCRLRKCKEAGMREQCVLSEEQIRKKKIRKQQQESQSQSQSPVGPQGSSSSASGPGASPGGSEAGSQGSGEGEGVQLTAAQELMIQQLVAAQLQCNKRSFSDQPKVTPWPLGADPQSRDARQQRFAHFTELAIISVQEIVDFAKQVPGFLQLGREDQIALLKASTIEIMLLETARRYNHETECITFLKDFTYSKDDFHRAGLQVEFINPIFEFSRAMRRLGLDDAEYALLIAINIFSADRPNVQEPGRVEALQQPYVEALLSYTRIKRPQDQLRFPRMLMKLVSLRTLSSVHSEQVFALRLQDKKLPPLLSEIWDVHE
As to the kind of experiment: Activity at LXRbeta (unknown origin).

Data set [7] in a line: Drug level in Balb/c mouse at 10 mg/kg, po after 24 hrs. Type of data set: ADME, organism-based. The note with it: in vivo, read-out: Drug uptake.
In data set [8] the target is T5, Nuclear receptor ROR-beta (Homo sapiens, UniProt Q92753).
T5 sequence (Q92753 whole entry): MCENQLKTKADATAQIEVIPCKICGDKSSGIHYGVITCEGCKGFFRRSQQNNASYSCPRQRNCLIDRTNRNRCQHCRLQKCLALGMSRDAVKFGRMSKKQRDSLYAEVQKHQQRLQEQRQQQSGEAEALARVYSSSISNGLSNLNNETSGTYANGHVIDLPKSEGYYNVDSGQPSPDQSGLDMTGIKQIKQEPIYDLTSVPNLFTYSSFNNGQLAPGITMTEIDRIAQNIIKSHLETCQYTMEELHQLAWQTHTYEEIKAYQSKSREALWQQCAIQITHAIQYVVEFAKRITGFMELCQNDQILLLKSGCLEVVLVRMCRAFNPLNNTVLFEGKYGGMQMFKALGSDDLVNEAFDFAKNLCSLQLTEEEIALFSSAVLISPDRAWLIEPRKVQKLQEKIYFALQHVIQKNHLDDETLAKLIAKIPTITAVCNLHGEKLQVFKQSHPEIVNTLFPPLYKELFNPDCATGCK
As to the kind of experiment: Activity at RORbeta (unknown origin).

Data set [9] can be described thus: Cmax in Balb/c mouse at 10 mg/kg, po. Format: ADME, organism-based. The arrangement: dose 10 mg/kg, route oral. The settings on record: in vivo.
Data set [10] is described as follows: Half life in mouse liver microsomes. Format: ADME, Microsome.
Data set [11] in a line: Unbound fraction in human serum. Type of data set: ADME, cell-free.

Bounds are passed on as bounds.

As usually defined, the IC50 is the point on the concentration scale where inhibition reaches its midpoint. Lower therefore signals greater potency in that assay. In general, half-life refers to the time in which the quantity being followed falls by half. As usually defined, the Cmax is the maximum level reached in the sampled fluid or tissue. Consider `O=C(O)[C@H]1CC[C@H](C(=O)N2CC[C@@]3(S(=O)(=O)c4ccccc4)c4ccc(C(F)(C(F)(F)F)C(F)(F)F)cc4CC[C@@H]23)CC1`, for which the IC50 in data set [1] was greater than 10 µM; in [3], greater than 40 µM; in [4], greater than 10 µM; in data set [6], greater than 10 µM; in [8] it was greater than 10 µM. Moreover, the half-life in [2], in data set [5] and in data set [10] was greater than 2 h each time. Besides, the concentration at 24 h in data set [7] is 740 nM. For the same compound, the Cmax in data set [9] stood at 6900 nM.

One may read the fraction unbound as free concentration divided by total concentration. On to `O=C(O)[C@H]1CC[C@H](C(=O)N2CC[C@@]3(S(=O)(=O)c4ccc(F)cc4)c4ccc(C(F)(C(F)(F)F)C(F)(F)F)cc4NC[C@@H]23)CC1`, for which the IC50 is greater than 10 µM in data set [1]; greater than 40 µM in data set [3]; greater than 10 µM in [4]; greater than 10 µM in data set [6]; greater than 10 µM in [8]. Moreover, the half-life in data set [2], in [5] and in [10] was greater than 2 h throughout. For the same compound, the unbound share (fraction unbound) in [11] amounted to 0.014.

`CCCN1C[C@H]2N(C(=O)[C@H]3CC[C@H](C(=O)O)CC3)CC[C@@]2(S(=O)(=O)c2ccc(F)cc2)c2ccc(C(F)(C(F)(F)F)C(F)(F)F)cc21`: the IC50 in [1] is greater than 10 µM; in data set [3], greater than 40 µM; in data set [4] it was greater than 10 µM; in [6], greater than 10 µM; in [8], greater than 10 µM. The half-life was 1.53 h in data set [2], 1.77 h in data set [5] and greater than 2 h in data set [10]. Further, the fraction unbound in data set [11] is 0.002.

Turning to `O=C(O)[C@H]1CC[C@H](C(=O)N2CC[C@@]3(S(=O)(=O)c4ccc(F)cc4)c4ccc(C(F)(C(F)(F)F)C(F)(F)F)cc4CC[C@@H]23)CC1`, the IC50 in data set [1] was greater than 10 µM; in [3], greater than 40 µM; in data set [4] it was greater than 10 µM; in [6] it was greater than 10 µM; in [8], greater than 10 µM. In addition, the half-life in data set [2], in [5] and in data set [10] was greater than 2 h each time. Besides, the concentration at 24 h in data set [7] was 1600 nM. The Cmax in data set [9] was 8600 nM.

For the compound `O=C(O)[C@H]1CC[C@H](C(=O)N2CC[C@@]3(S(=O)(=O)c4ccc(F)cc4)c4ccc(C(F)(C(F)(F)F)C(F)(F)F)cc4OC[C@@H]23)CC1`, the IC50 in data set [1] is greater than 10 µM; in data set [3] it was greater than 40 µM; in data set [4], greater than 10 µM; in data set [6] it was greater than 10 µM; in [8], greater than 10 µM. The half-life in [2], in data set [5] and in [10] was greater than 2 h each time. Besides, the fraction unbound in [11] is 0.003.

As for `CCN1C[C@H]2N(C(=O)[C@H]3CC[C@H](C(=O)O)CC3)CC[C@@]2(S(=O)(=O)c2ccc(F)cc2)c2ccc(C(F)(C(F)(F)F)C(F)(F)F)cc21`, the IC50 in [1] is greater than 10 µM; in [3], greater than 40 µM; in data set [4] it was greater than 10 µM; in data set [6], greater than 10 µM; in [8], greater than 10 µM. Moreover, the half-life in data set [2], in data set [5] and in [10] was greater than 2 h throughout. Moreover, the concentration at 24 h in [7] amounted to 3000 nM. In [11], this compound showed a fraction unbound of 0.005. Besides, the Cmax in data set [9] stood at 13000 nM.

As for `CN1C[C@H]2N(C(=O)[C@H]3CC[C@H](C(=O)O)CC3)CC[C@@]2(S(=O)(=O)c2ccc(F)cc2)c2ccc(C(F)(C(F)(F)F)C(F)(F)F)cc21`, the IC50 in data set [1] was greater than 10 µM; in data set [3], greater than 40 µM; in data set [4], greater than 10 µM; in data set [6] it was greater than 10 µM; in data set [8], greater than 10 µM. Further, the half-life in data set [2], in data set [5] and in [10] was greater than 2 h throughout. In data set [7], the concentration at 24 h worked out at 710 nM. In [11], this compound returned a fraction unbound of 0.024. The compound also showed a Cmax in [9] of 10000 nM.

As to `O=C(O)C12CCC(C(=O)N3CC[C@@]4(S(=O)(=O)c5ccc(F)cc5)c5ccc(C(F)(C(F)(F)F)C(F)(F)F)cc5CC[C@@H]34)(CC1)CC2`, the IC50 was greater than 10 µM in data set [1]; greater than 40 µM in data set [3]; greater than 10 µM in data set [4]; greater than 10 µM in data set [6]; greater than 10 µM in data set [8]. The half-life in data set [2], in data set [5] and in data set [10] was greater than 2 h each time. In data set [7], the concentration at 24 h was 1000 nM. In data set [9], this compound showed a Cmax of 9300 nM.

Regarding `O=C(O)[C@H]1CC[C@](O)(C(=O)N2CC[C@@]3(S(=O)(=O)c4ccc(F)cc4)c4ccc(C(F)(C(F)(F)F)C(F)(F)F)cc4CC[C@@H]23)CC1`, the IC50 in data set [1] is greater than 10 µM; in [3], greater than 40 µM; in data set [4] it was greater than 10 µM; in data set [6], greater than 10 µM; in [8] it was greater than 10 µM. In addition, the half-life in data set [2] was 1.65 h; in data set [5], greater than 2 h; in data set [10] it was greater than 2 h. The concentration at 24 h in [7] is 260 nM. Besides, the concentration in data set [9] peaked (Cmax) at 2500 nM.
